In patent US20260262643A1, “HERBICIDAL BENZOXAZINES” (FMC CORPORATION, priority 2022, published 2026):

Experiments:
blackgrass [1] = test: Test A preemergence; assay type: in vivo, Alopecurus myosuroides
Summary of the method: (§1)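 Plants were grown in loam and sand and treated preemergence or postemergence (one- to two-leaf stage, 2–10 cm) with compound in solvent plus surfactant. Response was scored against untreated controls after 10 greenhouse days, where 0 means no effect and 100 complete control.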

corn [2] = test: Test A preemergence; assay type: in vivo, Zea mays
Summary of the method: as §1

foxtail, giant [3] = test: Test A preemergence; assay type: in vivo, Setaria faberi
Summary of the method: as §1

goosegrass [4] = test: Test A preemergence; assay type: in vivo, Eleusine indica
Summary of the method: as §1

kochia [5] = test: Test A preemergence; assay type: in vivo, Bassia scoparia
Summary of the method: as §1

oat, wild [6] = test: Test A preemergence; assay type: in vivo, Avena fatua
Summary of the method: as §1

pigweed, palmer [7] = test: Test A preemergence; assay type: in vivo, Amaranthus palmeri
Summary of the method: as §1

ragweed [8] = test: Test A preemergence; assay type: in vivo, Ambrosia artemisiifolia
Summary of the method: as §1

ryegrass, Italian [9] = test: Test A preemergence; assay type: in vivo, Lolium multiflorum
Summary of the method: as §1

soybean [10] = test: Test A preemergence; assay type: in vivo, Glycine max
Summary of the method: as §1

wheat [11] = test: Test A preemergence; assay type: in vivo, Triticum aestivum
Summary of the method: as §1

blackgrass [12] = test: Test A postemergence; assay type: in vivo, Alopecurus myosuroides
Summary of the method: as §1

corn [13] = test: Test A postemergence; assay type: in vivo, Zea mays; details: postemergence, 10 days, visual injury, 0 to 100 scale (0 no effect, 100 complete control)
Summary of the method: as §1

foxtail, giant [14] = test: Test A postemergence; assay type: in vivo, Setaria faberi; details: postemergence, 10 days, visual injury, 0 to 100 scale (0 no effect, 100 complete control)
Summary of the method: as §1

goosegrass [15] = test: Test A postemergence; assay type: in vivo, Eleusine indica; details: postemergence, 10 days, visual injury, 0 to 100 scale (0 no effect, 100 complete control)
Summary of the method: as §1

kochia [16] = test: Test A postemergence; assay type: in vivo, Bassia scoparia; details: postemergence, 10 days, visual injury, 0 to 100 scale (0 no effect, 100 complete control)
Summary of the method: as §1

oat, wild [17] = test: Test A postemergence; assay type: in vivo, Avena fatua; details: 500 g ai/ha, postemergence, 10 days, visual injury, 0 to 100 scale (0 no effect, 100 complete control)
Summary of the method: as §1

pigweed, palmer [18] = test: Test A postemergence; assay type: in vivo, Amaranthus palmeri; details: 500 g ai/ha, postemergence, 10 days, visual injury, 0 to 100 scale (0 no effect, 100 complete control)
Summary of the method: as §1

ragweed [19] = test: Test A postemergence; assay type: in vivo, Ambrosia artemisiifolia; details: 500 g ai/ha, postemergence, 10 days, visual injury, 0 to 100 scale (0 no effect, 100 complete control)
Summary of the method: as §1

ryegrass, Italian [20] = test: Test A postemergence; assay type: in vivo, Lolium multiflorum; details: 500 g ai/ha, postemergence, 10 days, visual injury, 0 to 100 scale (0 no effect, 100 complete control)
Summary of the method: as §1

soybean [21] = test: Test A postemergence; assay type: in vivo, Glycine max; details: 500 g ai/ha, postemergence, 10 days, visual injury, 0 to 100 scale (0 no effect, 100 complete control)
Summary of the method: as §1

wheat [22] = test: Test A postemergence; assay type: in vivo, Triticum aestivum; details: 500 g ai/ha, postemergence, 10 days, visual injury, 0 to 100 scale (0 no effect, 100 complete control)
Summary of the method: as §1

galium = test: Test A postemergence; assay type: in vivo, Galium aparine; details: postemergence, 10 days, visual injury, 0 to 100 scale (0 no effect, 100 complete control)
Summary of the method: as §1

horseweed = test: Test A postemergence; assay type: in vivo, Erigeron canadensis; details: postemergence, 10 days, visual injury, 0 to 100 scale (0 no effect, 100 complete control)
Summary of the method: as §1

barnyardgrass = test: Test B flooded paddy test; assay type: in vivo, Echinochloa crus-galli; details: 250 g ai/ha, Flood, 13 days, 0 to 100 scale (0 no effect, 100 complete control)
Summary of the method: (§2)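 Application into standing water (3 cm above soil) at the two-leaf stage; flood depth held constant. Evaluation: day 13, visual comparison with controls, 0 = no injury, 100 = complete control.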

ducksalad = test: Test B flooded paddy test; assay type: in vivo, Heteranthera limosa; details: 250 g ai/ha, Flood, 13 days, 0 to 100 scale (0 no effect, 100 complete control)
Summary of the method: as §2

rice = test: Test B flooded paddy test; assay type: in vivo, Oryza sativa; details: 250 g ai/ha, Flood, 13 days, 0 to 100 scale (0 no effect, 100 complete control)
Summary of the method: as §2

sedge, umbrella = test: Test B flooded paddy test; assay type: in vivo, Cyperus difformis; details: 250 g ai/ha, Flood, 13 days, 0 to 100 scale (0 no effect, 100 complete control)
Summary of the method: as §2

[23] = 125 g ai/ha, visual injury after 10 days, 0 to 100 scale, 0 is no effect, 100 is complete control
[24] = 500 g ai/ha, 0 to 100 scale (0 no effect, 100 complete control), 10 days

Structure (SMILES): CCc1ncn(-c2cccc(C(=O)N3C[C@H](C)Oc4c(C)cccc43)c2)n1 [Compound 71]
- Plant response rating, Blackgrass (blackgrass [1]; [23]): 80
- Plant response rating, Blackgrass (blackgrass [1]; [24]): 90
- Plant response rating, Corn (corn [2]; [23]): 40
- Plant response rating, Corn (corn [2]; [24]): 60
- Plant response rating, Foxtail, Giant (foxtail, giant [3]; [23]): 100
- Plant response rating, Foxtail, Giant (foxtail, giant [3]; [24]): 100
- Plant response rating, Goosegrass (goosegrass [4]; [23]): 100
- Plant response rating, Goosegrass (goosegrass [4]; [24]): 100
- Plant response rating, Kochia (kochia [5]; [23]): 80
- Plant response rating, Kochia (kochia [5]; [24]): 100
- Plant response rating, Oat, Wild (oat, wild [6]; [23]): 90
- Plant response rating, Oat, Wild (oat, wild [6]; [24]): 90
- Plant response rating, Pigweed, Palmer (pigweed, palmer [7]; [23]): 100
- Plant response rating, Pigweed, Palmer (pigweed, palmer [7]; [24]): 100
- Plant response rating, Ragweed (ragweed [8]; [23]): 0
- Plant response rating, Ragweed (ragweed [8]; [24]): 90
- Plant response rating, Ryegrass, Italian (ryegrass, Italian [9]; [23]): 100
- Plant response rating, Ryegrass, Italian (ryegrass, Italian [9]; [24]): 100
- Plant response rating, Soybean (soybean [10]; [23]): 50
- Plant response rating, Soybean (soybean [10]; [24]): 90
- Plant response rating, Wheat (wheat [11]; [23]): 30
- Plant response rating, Wheat (wheat [11]; [24]): 90
- Plant response rating, Blackgrass (blackgrass [12]; 125 g ai/ha, postemergence, 10 days, visual injury, 0 to 100 scale (0 no effect, 100 complete control)): 80
- Plant response rating, Blackgrass (blackgrass [12]; 500 g ai/ha, Postemergence, 0 to 100 scale): 90
- Plant response rating, Corn (corn [13]; 125 g ai/ha): 60
- Plant response rating, Corn (corn [13]; 500 g ai/ha): 90
- Plant response rating, Foxtail, Giant (foxtail, giant [14]; 125 g ai/ha): 90
- Plant response rating, Foxtail, Giant (foxtail, giant [14]; 500 g ai/ha): 90
- Plant response rating, Goosegrass (goosegrass [15]; 125 g ai/ha): 10
- Plant response rating, Goosegrass (goosegrass [15]; 500 g ai/ha): 50
- Plant response rating, Kochia (kochia [16]; 125 g ai/ha): 60
- Plant response rating, Kochia (kochia [16]; 500 g ai/ha): 90
- Plant response rating, Oat, Wild (oat, wild [17]): 80
- Plant response rating, Pigweed, Palmer (pigweed, palmer [18]): 70
- Plant response rating, Ragweed (ragweed [19]): 80
- Plant response rating, Ryegrass, Italian (ryegrass, Italian [20]): 100
- Plant response rating, Soybean (soybean [21]): 100
- Plant response rating, Wheat (wheat [22]): 80
- Plant response rating, Galium (galium; 125 g ai/ha): 100
- Plant response rating, Galium (galium; 500 g ai/ha): 100
- Plant response rating, Horseweed (horseweed; 125 g ai/ha): 30
- Plant response rating, Horseweed (horseweed; 500 g ai/ha): 80
- Plant response rating, Barnyardgrass (barnyardgrass): 0
- Plant response rating, Ducksalad (ducksalad): 65
- Plant response rating, Rice (rice): 0
- Plant response rating, Sedge, Umbrella (sedge, umbrella): 95
